Measured values reported in ChEMBL document CHEMBL2440076, “New triarylpyrazoles as broad-spectrum anticancer agents: design, synthesis, and biological evaluation” (Eur J Med Chem, 2013).

Experiments:
Assay type in all cases: functional
[1] = tested on: OVCAR-8; test: Growth inhibition of human OVCAR8 cells assessed as cell growth at 3X10'-7 M after 48 hrs by sulforhodamine B assay; settings: OVCAR-8, 48 h, read-out: Activity
[2] = tested on: OVCAR-3; test: Growth inhibition of human OVCAR3 cells assessed as cell growth at 3X10'-7 M after 48 hrs by sulforhodamine B assay; settings: OVCAR-3, 48 h, read-out: Activity
[3] = tested on: LOX IMVI; test: Growth inhibition of human LOXIMVI cells assessed as cell growth at 3X10'-7 M after 48 hrs by sulforhodamine B assay; settings: read-out: Activity
[4] = tested on: SF-539; test: Growth inhibition of human SF539 cells assessed as cell growth at 3X10'-7 M after 48 hrs by sulforhodamine B assay; settings: SF-539, 48 h, read-out: Activity
[5] = tested on: SF-268; test: Growth inhibition of human SF268 cells assessed as cell growth at 3X10'-7 M after 48 hrs by sulforhodamine B assay; settings: SF-268, 48 h, read-out: Activity
[6] = tested on: HT-29; test: Growth inhibition of human HT-29 cells assessed as cell growth at 3X10'-7 M after 48 hrs by sulforhodamine B assay; settings: HT-29, 48 h, read-out: Activity
[7] = tested on: K562; test: Growth inhibition of human K562 cells assessed as cell growth at 3X10'-7 M after 48 hrs by sulforhodamine B assay; settings: K562, 48 h, read-out: Activity
[8] = tested on: PC-3; test: Growth inhibition of human PC3 cells assessed as cell growth at 3X10'-8 M after 48 hrs by sulforhodamine B assay; settings: PC-3, 48 h, read-out: Activity
[9] = tested on: RXF 393; test: Growth inhibition of human RXF393 cells assessed as cell growth at 3X10'-8 M after 48 hrs by sulforhodamine B assay; settings: RXF 393, 48 h, read-out: Activity
[10] = tested on: CCRF-CEM; test: Growth inhibition of human CCRF-CEM cells assessed as cell growth at 3X10'-9 M after 48 hrs by sulforhodamine B assay; settings: read-out: Activity
[11] = tested on: IGROV-1; test: Growth inhibition of human IGROV1 cells assessed as cell growth at 3X10'-8 M after 48 hrs by sulforhodamine B assay; settings: IGROV-1, 48 h, read-out: Activity
[12] = tested on: SK-MEL-5; test: Growth inhibition of human SK-MEL-5 cells assessed as cell growth at 3X10'-8 M after 48 hrs by sulforhodamine B assay; settings: SK-MEL-5, 48 h, read-out: Activity
[13] = tested on: SK-MEL-2; test: Growth inhibition of human SK-MEL-2 cells assessed as cell growth at 3X10'-8 M after 48 hrs by sulforhodamine B assay; settings: SK-MEL-2, 48 h, read-out: Activity
[14] = tested on: NCI-H522; test: Growth inhibition of human NCI-H522 cells assessed as cell growth at 3X10'-8 M after 48 hrs by sulforhodamine B assay; settings: NCI-H522, 48 h, read-out: Activity
[15] = tested on: HOP-92; test: Growth inhibition of human HOP92 cells assessed as cell growth at 3X10'-8 M after 48 hrs by sulforhodamine B assay; settings: HOP-92, 48 h, read-out: Activity
[16] = tested on: K562; test: Growth inhibition of human K562 cells assessed as cell growth at 3X10'-8 M after 48 hrs by sulforhodamine B assay; settings: K562, 48 h, read-out: Activity
[17] = tested on: UO-31; test: Growth inhibition of human UO31 cells assessed as cell growth at 3X10'-5 M after 48 hrs by sulforhodamine B assay; settings: UO-31, 48 h, read-out: Activity
[18] = tested on: RXF 393; test: Growth inhibition of human RXF393 cells assessed as cell growth at 3X10'-5 M after 48 hrs by sulforhodamine B assay; settings: RXF 393, 48 h, read-out: Activity
[19] = tested on: OVCAR-3; test: Growth inhibition of human OVCAR3 cells assessed as cell growth at 3X10'-9 M after 48 hrs by sulforhodamine B assay; settings: OVCAR-3, 48 h, read-out: Activity
[20] = tested on: SK-MEL-5; test: Growth inhibition of human SK-MEL-5 cells assessed as cell growth at 3X10'-5 M after 48 hrs by sulforhodamine B assay; settings: SK-MEL-5, 48 h, read-out: Activity
[21] = tested on: HCT-15; test: Growth inhibition of human HCT15 cells assessed as cell growth at 3X10'-5 M after 48 hrs by sulforhodamine B assay; settings: HCT-15, 48 h, read-out: Activity
[22] = tested on: A549; test: Growth inhibition of human A549/ATCC cells assessed as cell growth at 3X10'-5 M after 48 hrs by sulforhodamine B assay; settings: A549, 48 h, read-out: Activity
[23] = tested on: RPMI-8226; test: Growth inhibition of human RPMI8226 cells assessed as cell growth at 3X10'-5 M after 48 hrs by sulforhodamine B assay; settings: RPMI-8226, 48 h, read-out: Activity
[24] = tested on: K562; test: Growth inhibition of human K562 cells assessed as cell growth at 3X10'-5 M after 48 hrs by sulforhodamine B assay; settings: K562, 48 h, read-out: Activity
[25] = tested on: DU-145; test: Growth inhibition of human DU145 cells assessed as cell growth at 3X10'-6 M after 48 hrs by sulforhodamine B assay; settings: DU-145, 48 h, read-out: Activity
[26] = tested on: UACC-257; test: Growth inhibition of human UACC257 cells assessed as cell growth at 3X10'-9 M after 48 hrs by sulforhodamine B assay; settings: UACC-257, 48 h, read-out: Activity
[27] = tested on: SK-MEL-5; test: Growth inhibition of human SK-MEL-5 cells assessed as cell growth at 3X10'-9 M after 48 hrs by sulforhodamine B assay; settings: SK-MEL-5, 48 h, read-out: Activity
[28] = tested on: M14; test: Growth inhibition of human M14 cells assessed as cell growth at 3X10'-9 M after 48 hrs by sulforhodamine B assay; settings: M14, 48 h, read-out: Activity
[29] = tested on: SNB-75; test: Growth inhibition of human SNB75 cells assessed as cell growth at 3X10'-9 M after 48 hrs by sulforhodamine B assay; settings: SNB-75, 48 h, read-out: Activity
[30] = tested on: HOP-62; test: Growth inhibition of human HOP62 cells assessed as cell growth at 3X10'-9 M after 48 hrs by sulforhodamine B assay; settings: HOP-62, 48 h, read-out: Activity
[31] = tested on: UACC-62; test: Growth inhibition of human UACC62 cells assessed as cell growth at 3X10'-6 M after 48 hrs by sulforhodamine B assay; settings: UACC-62, 48 h, read-out: Activity
[32] = tested on: SNB-75; test: Growth inhibition of human SNB75 cells assessed as cell growth at 3X10'-6 M after 48 hrs by sulforhodamine B assay; settings: SNB-75, 48 h, read-out: Activity
[33] = tested on: SF-539; test: Growth inhibition of human SF539 cells assessed as cell growth at 3X10'-6 M after 48 hrs by sulforhodamine B assay; settings: SF-539, 48 h, read-out: Activity
[34] = tested on: SF-295; test: Growth inhibition of human SF295 cells assessed as cell growth at 3X10'-6 M after 48 hrs by sulforhodamine B assay; settings: SF-295, 48 h, read-out: Activity
[35] = tested on: MDA-MB-468; test: Growth inhibition of human MDA-MB-468 cells assessed as cell growth at 3X10'-7 M after 48 hrs by sulforhodamine B assay; settings: MDA-MB-468, 48 h, read-out: Activity
[36] = tested on: UO-31; test: Growth inhibition of human UO31 cells assessed as cell growth at 3X10'-7 M after 48 hrs by sulforhodamine B assay; settings: UO-31, 48 h, read-out: Activity
[37] = tested on: ACHN; test: Growth inhibition of human ACHN cells assessed as cell growth at 3X10'-7 M after 48 hrs by sulforhodamine B assay; settings: read-out: Activity

SMILES | growth at 0.3 µM [1] [%] | growth at 0.3 µM [2] [%] | growth at 0.3 µM [3] [%] | growth at 0.3 µM [4] [%] | growth at 0.3 µM [5] [%] | growth at 0.3 µM [6] [%] | growth at 0.3 µM [7] [%] | growth at 0.03 µM [8] [%] | growth at 0.03 µM [9] [%] | growth at 0.003 µM [10] [%] | growth at 0.03 µM [11] [%] | growth at 0.03 µM [12] [%] | growth at 0.03 µM [13] [%] | growth at 0.03 µM [14] [%] | growth at 0.03 µM [15] [%] | growth at 0.03 µM [16] [%] | growth at 30 µM [17] [%] | growth at 30 µM [18] [%] | growth at 0.003 µM [19] [%] | growth at 30 µM [20] [%] | other results
COc1cc(-c2nn(-c3cccc(NC(=O)c4ccc(Cl)c(C(F)(F)F)c4)c3)cc2-c2ccncc2)ccc1Cl | 93 | 98 | 86 | 91 | 89 | 93 | 115 | 92 | 99 | 96 | 89 | 97 | 100 | 94 | 85 | 100 | 11 | -11 | 104 | -51 | growth at 30 µM [21]: 25%; growth at 30 µM [22]: 16%; growth at 30 µM [23]: 5%; growth at 30 µM [24]: 11%; growth at 3 µM [25]: 67%; growth at 0.003 µM [26]: 93%; growth at 0.003 µM [27]: 99%; growth at 0.003 µM [28]: 99%; growth at 0.003 µM [29]: 86%; growth at 0.003 µM [30]: 98%; growth at 3 µM [31]: 40%; growth at 3 µM [32]: 44%; growth at 3 µM [33]: 57%; growth at 3 µM [34]: 27%; growth at 0.3 µM [35]: 89%; growth at 0.3 µM [36]: 47%; growth at 0.3 µM [37]: 90%
O=C(Nc1cccc(-n2cc(-c3ccncc3)c(-c3ccc(Cl)c(O)c3)n2)c1)Nc1ccc(Cl)c(C(F)(F)F)c1 | 89 | 101 | 87 | 89 | 93 | 93 | 88 | 89 | 93 | 98 | 109 | 94 | 113 | 101 | 76 | 105 | -28 | -49 | 109 | -97 | growth at 30 µM [21]: -2%; growth at 30 µM [22]: -29%; growth at 30 µM [23]: -15%; growth at 30 µM [24]: 1%; growth at 3 µM [25]: 10%; growth at 0.003 µM [26]: 97%; growth at 0.003 µM [27]: 99%; growth at 0.003 µM [28]: 100%; growth at 0.003 µM [29]: 93%; growth at 0.003 µM [30]: 97%; growth at 3 µM [31]: -48%; growth at 3 µM [33]: -14%; growth at 3 µM [34]: -22%; growth at 0.3 µM [35]: 72%; growth at 0.3 µM [36]: 82%; growth at 0.3 µM [37]: 84%
O=C(Nc1cccc(-n2cc(-c3ccncc3)c(-c3ccc(Cl)c(O)c3)n2)c1)Nc1ccc(Cl)c(Cl)c1 | 95 | 103 | 90 | 87 | 102 | 110 | 110 | 98 | 100 | 91 | 104 | 96 | 106 | 94 | 93 | 102 | 7 | -37 | 96 | -95 | growth at 30 µM [21]: -1%; growth at 30 µM [22]: 8%; growth at 30 µM [23]: 3%; growth at 30 µM [24]: 4%; growth at 3 µM [25]: 22%; growth at 0.003 µM [26]: 95%; growth at 0.003 µM [27]: 96%; growth at 0.003 µM [28]: 93%; growth at 0.003 µM [29]: 88%; growth at 0.003 µM [30]: 96%; growth at 3 µM [31]: 14%; growth at 3 µM [32]: 20%; growth at 3 µM [33]: 27%; growth at 0.3 µM [35]: 76%; growth at 0.3 µM [36]: 93%; growth at 0.3 µM [37]: 96%
O=C(Nc1cccc(-n2cc(-c3ccncc3)c(-c3ccc(Cl)c(O)c3)n2)c1)Nc1cccc(C(F)(F)F)c1 | 91 | 92 | 97 | 92 | 96 | 111 | 101 | 96 | 97 | 97 | 98 | 98 | 98 | 90 | 77 | 92 | 11 | -37 | 96 | -90 | growth at 30 µM [21]: 6%; growth at 30 µM [22]: 11%; growth at 30 µM [23]: 5%; growth at 30 µM [24]: 6%; growth at 3 µM [25]: 33%; growth at 0.003 µM [26]: 96%; growth at 0.003 µM [27]: 103%; growth at 0.003 µM [28]: 97%; growth at 0.003 µM [29]: 91%; growth at 0.003 µM [30]: 97%; growth at 3 µM [31]: 33%; growth at 3 µM [32]: 53%; growth at 3 µM [33]: 54%; growth at 3 µM [34]: 7%; growth at 0.3 µM [35]: 81%; growth at 0.3 µM [36]: 90%; growth at 0.3 µM [37]: 94%
COc1cc(-c2nn(-c3cccc(NC(=O)Nc4ccc(Cl)c(C(F)(F)F)c4)c3)cc2-c2ccncc2)ccc1Cl | 97 | 100 | 97 | 91 | 97 | 102 | 100 | 95 | 93 | 98 | 102 | 91 | 115 | 104 | 74 | 105 | -28 | -49 | 105 | -94 | growth at 30 µM [21]: -35%; growth at 30 µM [22]: -5%; growth at 30 µM [23]: -7%; growth at 30 µM [24]: 1%; growth at 3 µM [25]: 23%; growth at 0.003 µM [26]: 94%; growth at 0.003 µM [27]: 98%; growth at 0.003 µM [28]: 106%; growth at 0.003 µM [29]: 90%; growth at 0.003 µM [30]: 95%; growth at 3 µM [31]: -21%; growth at 3 µM [32]: 24%; growth at 3 µM [33]: 33%; growth at 3 µM [34]: -11%; growth at 0.3 µM [35]: 81%; growth at 0.3 µM [36]: 85%; growth at 0.3 µM [37]: 97%
